# Reference: patent US7816522B2, “Triazolone derivatives” (Eisai Co., Ltd., priority 2006, dated 2010)
# Counter-ions that a name gives are not always drawn.
# Molecular target: T1, human clotting factor VIIa (Homo sapiens, UniProt P08709)
# T1 construct: a human clotting factor VIIa (hereinafter, “Factor VIIa”) purified sample; purchased Enzyme Research Laboratories HFVIIa
# Assay: Inhibitory activity against clotting factor VIIa (chromogenic substrate Spectrozyme FVIIa, TF/Factor VIIa enzyme solution)
# Assay type: biochemical
# Conditions: human Factor VIIa 5 nmol/L with human TF 10 nmol/L, room temperature 40 minutes, 405 nm
# Outline: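 Human Factor VIIa (5 nmol/L) with human TF (10 nmol/L) in Tris-BSA buffer pH 7.4 containing 15 mmol/L CaCl2 and cephalin, with Spectrozyme FVIIa substrate. Reaction 40 min at room temperature; 4-nitroanilide read at 405 nm. IC50 by non-linear regression over 100 μmol/L–0.1 nmol/L.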
# T1 sequence (P08709 213-466 limits assumed): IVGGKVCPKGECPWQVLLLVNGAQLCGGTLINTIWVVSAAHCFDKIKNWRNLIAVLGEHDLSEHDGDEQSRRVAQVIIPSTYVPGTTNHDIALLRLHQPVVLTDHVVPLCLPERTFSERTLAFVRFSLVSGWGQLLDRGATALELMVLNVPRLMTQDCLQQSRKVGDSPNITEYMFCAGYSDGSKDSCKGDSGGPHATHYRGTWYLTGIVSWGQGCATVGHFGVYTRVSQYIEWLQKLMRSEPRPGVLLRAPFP
# T1 sequence (P08709 61-212 limits assumed): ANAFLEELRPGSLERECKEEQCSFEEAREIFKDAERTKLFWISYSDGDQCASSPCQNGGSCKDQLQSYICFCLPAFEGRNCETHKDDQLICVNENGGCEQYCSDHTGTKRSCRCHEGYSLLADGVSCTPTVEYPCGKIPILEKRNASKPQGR
# T1 sequence (P13726 33-295 partner): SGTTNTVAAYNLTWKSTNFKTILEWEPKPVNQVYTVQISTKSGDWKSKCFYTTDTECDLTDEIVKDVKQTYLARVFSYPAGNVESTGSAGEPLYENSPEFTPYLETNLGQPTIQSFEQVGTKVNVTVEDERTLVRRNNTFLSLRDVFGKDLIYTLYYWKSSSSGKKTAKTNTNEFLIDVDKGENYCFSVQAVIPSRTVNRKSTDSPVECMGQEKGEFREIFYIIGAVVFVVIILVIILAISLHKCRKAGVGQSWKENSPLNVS
row,SMILES,IC50 [nM]
1,"C=Cc1cc(O)cc(C(Nc2ccc(C(=N)N)cc2)c2nn(-c3ncccn3)c(=O)[nH]2)c1 (racemic) [Example 47, 4-{[(3-hydroxy-5-vinylphenyl)-(5-oxo-1-pyrimidin-2-yl-4,5-dihydro-1H-[1,2,4]triazol-3-yl)methyl]amino}benzamidine]",8.9
2,"COc1cc(C(Nc2ccc(C(=N)N)cc2)c2nn(-c3ncccn3)c(=O)[nH]2)ccc1OCF (racemic) [Example 53, (R) and (S)-4-{[(4-fluoromethoxy-3-methoxyphenyl)-(5-oxo-1-pyrimidin-2-yl-4,5-dihydro-1H-[1,2,4]triazol-3-yl)methyl]amino}benzamidine acetate]",10.6
3,"COc1cc(C(Nc2ccc(C(=N)N)cc2)c2nn(-c3ncccn3)c(=O)[nH]2)cc(OC)n1 (racemic) [Example 54, (R) and (S)-4-{[(2,6-dimethoxypyridin-4-yl)-(5-oxo-1-pyrimidin-2-yl-4,5-dihydro-1H-[1,2,4]triazol-3-yl)methyl]amino}benzamidine acetate]",18.7
4,"COc1cc(C(Nc2ccc(C(=N)N)cc2)c2nn(-c3ncccc3N)c(=O)[nH]2)cc(OC)n1 (racemic) [Example 55, (R) and (S)-4-({[1-(3-aminopyridin-2-yl)-5-oxo-4,5-dihydro-1H-[1,2,4]triazol-3-yl]-(2,6-dimethoxypyridin-4-yl)methyl}amino)benzamidine acetate]",10.3
5,"COc1cc(C(Nc2ccc(C(=N)N)cc2)c2nn(-c3ncccc3F)c(=O)[nH]2)cc(OC)n1 (racemic) [Example 56, (R) and (S)-4-{[(2,6-dimethoxypyridin-4-yl)-[1-(3-fluoropyridin-2-yl)-5-oxo-4,5-dihydro-1H-[1,2,4]triazol-3-yl)methyl]amino}benzamidine acetate]",11.2
6,"COc1cc(OCCF)cc(C(Nc2ccc(C(=N)N)cc2)c2nn(-c3ncccn3)c(=O)[nH]2)c1 (racemic) [Example 61, (R) and (S)-4-({[3-(2-fluoroethoxy)-5-methoxyphenyl]-(5-oxo-1-pyrimidin-2-yl-4,5-dihydro-1H-[1,2,4]triazol-3-yl)methyl}amino)benzamidine acetate]",5.6
7,"COc1cc(OCC(=O)N(C)C)cc(C(Nc2ccc(C(=N)N)cc2)c2nn(-c3ncccn3)c(=O)[nH]2)c1 (racemic) [Example 62, (R) and (S)-2-{3-[(4-carbamimidoylphenylamino)-(5-oxo-1-pyrimidin-2-yl-4,5-dihydro-1H-[1,2,4]triazol-3-yl)methyl]-5-methoxyphenoxy}-N,N-dimethylacetamide acetate]",24.4
8,"CCOc1cc(OC)cc(C(Nc2ccc(C(=N)N)cc2)c2nn(-c3cccnn3)c(=O)[nH]2)c1 (racemic) [Example 65, (R) and (S)-4-{[(3-ethoxy-5-methoxyphenyl)-(5-oxo-1-pyridazin-3-yl-4,5-dihydro-1H-[1,2,4]triazol-3-yl)methyl]amino}benzamidine acetate]",5.3
9,"COc1cc(OC)c(F)c(C(Nc2ccc(C(=N)N)cc2)c2nn(-c3ncccn3)c(=O)[nH]2)c1 (racemic) [Example 66, (R) and (S)-4-{[(2-fluoro-3,5-dimethoxyphenyl)-(5-oxo-1-pyrimidin-2-yl-4,5-dihydro-1H-[1,2,4]triazol-3-yl)methyl]amino}benzamidine acetate]",7.9
10,"CCOc1cc(OCCF)c(F)c(C(Nc2ccc(C(=N)N)cc2)c2nn(-c3ncccn3)c(=O)[nH]2)c1 (racemic) [Example 68, (R) and (S)-4-({[2-fluoro-3-(2-fluoroethoxy)-5-ethoxyphenyl]-(5-oxo-1-pyrimidin-2-yl-4,5-dihydro-1H-[1,2,4]triazol-3-yl)methyl}amino)benzamidine acetate]",6.7
11,"CCOc1cc(OC)c(F)c(C(Nc2ccc(C(=N)N)cc2)c2nn(-c3ncccn3)c(=O)[nH]2)c1 (racemic) [Example 69, (R) and (S)-4-{[(5-ethoxy-2-fluoro-3-methoxyphenyl)-(5-oxo-1-pyrimidin-2-yl-4,5-dihydro-1H-[1,2,4]triazol-3-yl)methyl]amino}benzamidine acetate]",15.1
12,"CCOc1cc(OC)c(F)c(C(Nc2ccc(C(=N)N)cc2)c2nn(-c3cccnn3)c(=O)[nH]2)c1 (racemic) [Example 71, (R) and (S)-4-{[(5-ethoxy-2-fluoro-3-methoxyphenyl)-(5-oxo-1-pyridazin-3-yl-4,5-dihydro-1H-[1,2,4]triazol-3-yl)methyl]amino}benzamidine acetate]",7.7
13,"COc1cc(COCCF)cc(C(Nc2ccc(C(=N)N)cc2)c2nn(-c3ncccn3)c(=O)[nH]2)c1 (racemic) [Example 72, (R) and (S)-4-({[3-(2-fluoroethoxymethyl)-5-methoxyphenyl]-(5-oxo-1-pyrimidin-2-yl-4,5-dihydro-1H-[1,2,4]triazol-3-yl)methyl}amino)benzamidine acetate]",10
14,"COCc1cc(OC)cc(C(Nc2ccc(C(=N)N)cc2)c2nn(-c3cccnn3)c(=O)[nH]2)c1 (racemic) [Example 73, (R) and (S)-4-{[(3-methoxy-5-methoxymethylphenyl)-(5-oxo-1-pyridazin-3-yl-4,5-dihydro-1H-[1,2,4]triazol-3-yl)methyl]amino}benzamidine trifluoroacetate]",11.2

# Next, values leading:
row,IC50 [nM],SMILES
1,3.2,"COc1cc(OCCF)c(F)c(C(Nc2ccc(C(=N)N)cc2)c2nn(-c3cccnc3N)c(=O)[nH]2)c1 (racemic) [Example 50, (R) and (S)-4-({[1-(2-aminopyridin-3-yl)-5-oxo-4,5-dihydro-1H-[1,2,4]triazol-3-yl]-[2-fluoro-3-(2-fluoroethoxy)-5-methoxyphenyl]methyl}amino)benzamidine diacetate]"
2,5.2,"COc1cc(C(Nc2ccc(C(=N)N)cc2)c2nn(-c3ncccc3N)c(=O)[nH]2)c(F)c2c1OCC2 (racemic) [Example 52, (R) and (S)-4-({[1-(3-aminopyridin-2-yl)-5-oxo-4,5-dihydro-1H-[1,2,4]triazol-3-yl]-(4-fluoro-7-methoxy-2,3-dihydrobenzofuran-5-yl)methyl}amino)benzamidine diacetate]"
3,3.4,"Cc1cc(O[C@H]2CCOC2)cc(C(Nc2ccc(C(=N)N)cc2)c2nn(-c3ncccn3)c(=O)[nH]2)c1 (mixture of isomers) [Example 58, 4-[((R) and (S)-{3-methyl-5-[(S)-(tetrahydrofuran-3-yl)oxy]phenyl}-(5-oxo-1-pyrimidin-2-yl-4,5-dihydro-1H-[1,2,4]triazol-3-yl)methyl)amino]benzamidine acetate]"
4,4.5,"Cc1cc(O[C@@H]2CCOC2)cc(C(Nc2ccc(C(=N)N)cc2)c2nn(-c3ncccn3)c(=O)[nH]2)c1 (mixture of isomers) [Example 59, 4-[((R) and (S)-{3-methyl-5-[(R)-(tetrahydrofuran-3-yl)oxy]phenyl}-(5-oxo-1-pyrimidin-2-yl-4,5-dihydro-1H-[1,2,4]triazol-3-yl)methyl)amino]benzamidine acetate]"
5,3.7,"Cc1cc(OC2CCOCC2)cc(C(Nc2ccc(C(=N)N)cc2)c2nn(-c3ncccn3)c(=O)[nH]2)c1 (racemic) [Example 60, (R) and (S)-4-({[3-methyl-5-(tetrahydropyran-4-yloxy)phenyl]-(5-oxo-1-pyrimidin-2-yl-4,5-dihydro-1H-[1,2,4]triazol-3-yl)methyl}amino)benzamidine acetate]"
6,3.9,"COc1cc(OC2CCOCC2)cc(C(Nc2ccc(C(=N)N)cc2)c2nn(-c3ncccn3)c(=O)[nH]2)c1 (racemic) [Example 63, (R) and (S)-4-({[3-methoxy-5-(tetrahydropyran-4-yloxy)phenyl]-(5-oxo-1-pyrimidin-2-yl-4,5-dihydro-1H-[1,2,4]triazol-3-yl)methyl}amino)benzamidine acetate]"
7,4.2,"COc1cc(OCCF)cc(C(Nc2ccc(C(=N)N)cc2)c2nn(-c3cccnn3)c(=O)[nH]2)c1 (racemic) [Example 64, (R) and (S)-4-({[3-(2-fluoroethoxy)-5-methoxyphenyl]-(5-oxo-1-pyridazin-3-yl-4,5-dihydro-1H-[1,2,4]triazol-3-yl)methyl}amino)benzamidine acetate]"
8,4.5,"COc1cc(C(Nc2ccc(C(=N)N)cc2)c2nn(-c3ncccn3)c(=O)[nH]2)c(F)c(OC)c1OC (racemic) [Example 67, (R) and (S)-4-{[(2-fluoro-3,4,5-trimethoxyphenyl)-(5-oxo-1-pyrimidin-2-yl-4,5-dihydro-1H-[1,2,4]triazol-3-yl)methyl]amino}benzamidine acetate]"
9,4.9,"CCOc1cc(OCCF)c(F)c(C(Nc2ccc(C(=N)N)cc2)c2nn(-c3cccnn3)c(=O)[nH]2)c1 (racemic) [Example 70, 4-({(R) and (S)-[5-ethoxy-2-fluoro-3-(2-fluoroethoxy)phenyl]-(5-oxo-1-pyridazin-3-yl-4,5-dihydro-1H-[1,2,4]triazol-3-yl)methyl}amino)benzamidine acetate]"
10,3.3,"CCc1cc(OCCF)cc(C(Nc2ccc(C(=N)N)cc2)c2nn(-c3ncccn3)c(=O)[nH]2)c1 (racemic) [Example 74, (R) and (S)-4-({[3-ethyl-5-(2-fluoroethoxy)phenyl]-(5-oxo-1-pyrimidin-2-yl-4,5-dihydro-1H-[1,2,4]triazol-3-yl)methyl}amino)benzamidine acetate]"
11,5.2,"CCc1cc(OC)cc(C(Nc2ccc(C(=N)N)cc2)c2nn(-c3ncccn3)c(=O)[nH]2)c1 (racemic) [Example 75, (R) and (S)-4-{[(3-ethyl-5-methoxyphenyl)-(5-oxo-1-pyrimidin-2-yl-4,5-dihydro-1H-[1,2,4]triazol-3-yl)methyl]amino}benzamidine acetate]"
12,5.2,"CCc1cc(OCCOC)cc(C(Nc2ccc(C(=N)N)cc2)c2nn(-c3ncccn3)c(=O)[nH]2)c1 (racemic) [Example 76, (R) and (S)-4-({[3-ethyl-5-(2-methoxyethoxy)phenyl]-(5-oxo-1-pyrimidin-2-yl-4,5-dihydro-1H-[1,2,4]triazol-3-yl)methyl}amino)benzamidine trifluoroacetate]"
